Measured values published in patent publication US20020137929A1, “1 - (3-heterocyclylphenyl) isothiourea, -isourea, -guanidine and -amidine herbicidal agents” (Intellectual Property Department, BASF Aktiengesellschaft, priority 1998, published 2002).

Legend:
ABUTH (Velvetleaf) [1] = test: Postemergence herbicidal evaluation; type: in vivo, Abutilon theophrasti; conditions: postemergence
How it was run: (§1)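 Compound is applied as a foliar spray to seedlings about two weeks old, formulated in equal parts acetone and water with 0.5% TWEEN 20 and delivered at 40 psi to give about 0.0156–0.500 kg per hectare. Injury is rated visually 0–9 after four to five weeks.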

[2] = test system: CHEAL (Lambsquarters, Common); test: Postemergence herbicidal evaluation; type: in vivo, Chenopodium album; conditions: postemergence
How it was run: as §1

[3] = test system: IPOHE (Morningglory, Ivyleaf); test: Postemergence herbicidal evaluation; type: in vivo, Ipomoea hederacea; conditions: postemergence
How it was run: as §1

ECHCG (Barnyardgrass) [4] = test: Postemergence herbicidal evaluation; type: in vivo, Echinochloa crus-galli; conditions: postemergence
How it was run: as §1

SETVI (Foxtail, Green) = test: Postemergence herbicidal evaluation; type: in vivo, Setaria viridis; conditions: postemergence
How it was run: as §1

ORYSAT (Rice, Tebonnet) = test: Postemergence herbicidal evaluation; type: in vivo, Oryza sativa, (L.) Tebonnet; conditions: postemergence
How it was run: as §1

ZEAMX (Corn, Field) [5] = test: Postemergence herbicidal evaluation; type: in vivo, Zea mays; conditions: postemergence
How it was run: as §1

ABUTH (Velvetleaf) [6] = test: Preemergence herbicidal evaluation; type: in vivo, Abutilon theophrasti; conditions: preemergence, rated 4-5 weeks after treatment, 0-9 scale
How it was run: (§2)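 Greenhouse preemergence test: seed-soil mix sown on ~1 inch soil; aqueous acetone spray at equivalent of ~0.0156–0.500 kg/ha; greenhouse-held and watered; scored 0–9 visually at 4–5 weeks.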

CASOB (Sicklepod) = test: Preemergence herbicidal evaluation; type: in vivo, Cassia obtusifolia; conditions: preemergence, rated 4-5 weeks after treatment, 0-9 scale
How it was run: as §2

[7] = test system: CHEAL (Lambsquarters, Common); test: Preemergence herbicidal evaluation; type: in vivo, Chenopodium album; conditions: preemergence, rated 4-5 weeks after treatment, 0-9 scale
How it was run: as §2

[8] = test system: IPOHE (Morningglory, Ivyleaf); test: Preemergence herbicidal evaluation; type: in vivo, Ipomoea hederacea; conditions: preemergence, rated 4-5 weeks after treatment, 0-9 scale
How it was run: as §2

ECHCG (Barnyardgrass) [9] = test: Preemergence herbicidal evaluation; type: in vivo, Echinochloa crus-galli; conditions: preemergence, rated 4-5 weeks after treatment, 0-9 scale
How it was run: as §2

[10] = test system: GLXMAW (Soybean, Williams); test: Preemergence herbicidal evaluation; type: in vivo, Glycine max, (L.) Merr. cv Williams; conditions: preemergence, rated 4-5 weeks after treatment, 0-9 scale
How it was run: as §2

[11] = test system: TRZAWR (Wheat, Winter, cv Riband); test: Preemergence herbicidal evaluation; type: in vivo, Triticum aestivum; conditions: preemergence, rated 4-5 weeks after treatment, 0-9 scale
How it was run: as §2

ZEAMX (Corn, Field) [12] = test: Preemergence herbicidal evaluation; type: in vivo, Zea mays; conditions: preemergence, rated 4-5 weeks after treatment, 0-9 scale
How it was run: as §2

CYPIR (Rice Flatsedge) = test: Postemergence weed control under flooded paddy conditions; type: in vivo, Cyperus iria; conditions: postemergence weeds, rated 3 to 4 weeks after treatment
How it was run: (§3)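 Containers holding 3–5 cm weeds and rice at 1.5–2.5 leaves are flooded to 1.5–3 cm above soil. Compound in 50/50 v/v aqueous/acetone is then added directly to the water, about 0.0313–0.500 kg/ha. Plants are kept in the greenhouse and rated 0–9 visually at 3–4 weeks.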

CYPSE (Flatsedge) = test: as above; type: in vivo, Cyperus serotinus; conditions: postemergence weeds, rated 3 to 4 weeks after treatment
How it was run: as §3

`C=CCN1C(=O)C(CC(=O)NC)SC1=Nc1cc(-n2c(=O)cc(C(F)(F)F)n(C)c2=O)c(F)cc1Cl` (stereo not drawn) [Compound 84, 3-Allyl-2-{{2-chloro-5-[3,6-dihydro-3-methyl-2,6-dioxo-4-(trifluoromethyl)-1(2H)-pyrimidinyl]-4-fluorophenyl}imino}-N-methyl-4-oxo-5-thiazolidineacetamide] was tested, and the ABUTH herbicidal rating (ABUTH (Velvetleaf) [1]; rate 0.0156 kg/ha) was 9.0, the ABUTH herbicidal rating (ABUTH (Velvetleaf) [1]; rate 0.0313 kg/ha) was 9.0 and the ABUTH herbicidal rating (ABUTH (Velvetleaf) [1]; rate 0.0625 kg/ha) was 9.0. The ABUTH herbicidal rating (ABUTH (Velvetleaf) [1]; rate 0.1250 kg/ha) was 9.0, the CHEAL herbicidal rating ([2]; rate 0.0156 kg/ha) was 6.0 and the CHEAL herbicidal rating ([2]; rate 0.0313 kg/ha) was 7.0. For the same compound, the CHEAL herbicidal rating ([2]; rate 0.0625 kg/ha) was 9.0, the CHEAL herbicidal rating ([2]; rate 0.1250 kg/ha) was 9.0 and the IPOHE herbicidal rating ([3]; rate 0.0156 kg/ha) was 9.0. For the same compound, the IPOHE herbicidal rating ([3]; rate 0.0313 kg/ha) was 9.0, the IPOHE herbicidal rating ([3]; rate 0.0625 kg/ha) was 9.0 and the IPOHE herbicidal rating ([3]; rate 0.1250 kg/ha) was 9.0. For the same compound, the ECHCG herbicidal rating (ECHCG (Barnyardgrass) [4]; rate 0.0156 kg/ha) was 0.0, the ECHCG herbicidal rating (ECHCG (Barnyardgrass) [4]; rate 0.0313 kg/ha) was 0.0 and the ECHCG herbicidal rating (ECHCG (Barnyardgrass) [4]; rate 0.0625 kg/ha) was 0.0. For the same compound, the ECHCG herbicidal rating (ECHCG (Barnyardgrass) [4]; rate 0.1250 kg/ha) was 0.0, the SETVI herbicidal rating (SETVI (Foxtail, Green); rate 0.0156 kg/ha) was 0.0 and the SETVI herbicidal rating (SETVI (Foxtail, Green); rate 0.0313 kg/ha) was 0.0. It also gave an SETVI herbicidal rating (SETVI (Foxtail, Green); rate 0.0625 kg/ha) of 0.0, an SETVI herbicidal rating (SETVI (Foxtail, Green); rate 0.1250 kg/ha) of 2.0 and an ORYSAT herbicidal rating (ORYSAT (Rice, Tebonnet); rate 0.0156 kg/ha) of 0.5. It also gave an ORYSAT herbicidal rating (ORYSAT (Rice, Tebonnet); rate 0.0313 kg/ha) of 1.0, an ORYSAT herbicidal rating (ORYSAT (Rice, Tebonnet); rate 0.0625 kg/ha) of 1.5 and an ORYSAT herbicidal rating (ORYSAT (Rice, Tebonnet); rate 0.1250 kg/ha) of 3.0. It also gave a ZEAMX herbicidal rating (ZEAMX (Corn, Field) [5]; rate 0.0156 kg/ha) of 4.0, a ZEAMX herbicidal rating (ZEAMX (Corn, Field) [5]; rate 0.0313 kg/ha) of 4.0 and a ZEAMX herbicidal rating (ZEAMX (Corn, Field) [5]; rate 0.0625 kg/ha) of 4.5. It also gave a ZEAMX herbicidal rating (ZEAMX (Corn, Field) [5]; rate 0.1250 kg/ha) of 5.0, an ABUTH rating (ABUTH (Velvetleaf) [6]; 0.0156 kg/ha) of 2.0 and an ABUTH rating (ABUTH (Velvetleaf) [6]; 0.0313 kg/ha) of 2.0. The ABUTH rating (ABUTH (Velvetleaf) [6]; 0.0625 kg/ha) was 7.0, the ABUTH rating (ABUTH (Velvetleaf) [6]; 0.1250 kg/ha) was 9.0 and the ABUTH rating (ABUTH (Velvetleaf) [6]; 0.2500 kg/ha) was 9.0. The ABUTH rating (ABUTH (Velvetleaf) [6]; 0.5000 kg/ha) was 9.0, the CASOB rating (CASOB (Sicklepod); 0.0156 kg/ha) was 0.0 and the CASOB rating (CASOB (Sicklepod); 0.0313 kg/ha) was 0.0. For the same compound, the CASOB rating (CASOB (Sicklepod); 0.0625 kg/ha) was 0.0, the CASOB rating (CASOB (Sicklepod); 0.1250 kg/ha) was 0.0 and the CASOB rating (CASOB (Sicklepod); 0.2500 kg/ha) was 0.0. For the same compound, the CASOB rating (CASOB (Sicklepod); 0.5000 kg/ha) was 9.0, the CHEAL rating ([7]; 0.0156 kg/ha) was 5.0 and the CHEAL rating ([7]; 0.0313 kg/ha) was 9.0. For the same compound, the CHEAL rating ([7]; 0.0625 kg/ha) was 9.0, the CHEAL rating ([7]; 0.1250 kg/ha) was 9.0 and the CHEAL rating ([7]; 0.2500 kg/ha) was 9.0. The CHEAL rating ([7]; 0.5000 kg/ha) was 9.0, the IPOHE rating ([8]; 0.0156 kg/ha) was 0.0 and the IPOHE rating ([8]; 0.0313 kg/ha) was 0.0. For the same compound, the IPOHE rating ([8]; 0.0625 kg/ha) was 0.0, the IPOHE rating ([8]; 0.1250 kg/ha) was 1.0 and the IPOHE rating ([8]; 0.2500 kg/ha) was 9.0. The IPOHE rating ([8]; 0.5000 kg/ha) was 9.0, the ECHCG rating (ECHCG (Barnyardgrass) [9]; 0.0156 kg/ha) was 0.0 and the ECHCG rating (ECHCG (Barnyardgrass) [9]; 0.0313 kg/ha) was 0.0. For the same compound, the ECHCG rating (ECHCG (Barnyardgrass) [9]; 0.0625 kg/ha) was 0.0, the ECHCG rating (ECHCG (Barnyardgrass) [9]; 0.1250 kg/ha) was 0.0 and the ECHCG rating (ECHCG (Barnyardgrass) [9]; 0.2500 kg/ha) was 2.0. For the same compound, the ECHCG rating (ECHCG (Barnyardgrass) [9]; 0.5000 kg/ha) was 9.0, the GLXMAW rating ([10]; 0.0156 kg/ha) was 0.0 and the GLXMAW rating ([10]; 0.0313 kg/ha) was 0.0. The GLXMAW rating ([10]; 0.0625 kg/ha) was 0.0, the GLXMAW rating ([10]; 0.1250 kg/ha) was 3.0 and the GLXMAW rating ([10]; 0.2500 kg/ha) was 5.0. The GLXMAW rating ([10]; 0.5000 kg/ha) was 7.0, the TRZAWR rating ([11]; 0.0156 kg/ha) was 0.0 and the TRZAWR rating ([11]; 0.0313 kg/ha) was 0.0. The TRZAWR rating ([11]; 0.0625 kg/ha) was 0.0, the TRZAWR rating ([11]; 0.1250 kg/ha) was 4.0 and the TRZAWR rating ([11]; 0.2500 kg/ha) was 6.0. For the same compound, the TRZAWR rating ([11]; 0.5000 kg/ha) was 9.0, the ZEAMX rating (ZEAMX (Corn, Field) [12]; 0.0156 kg/ha) was 0.0 and the ZEAMX rating (ZEAMX (Corn, Field) [12]; 0.0313 kg/ha) was 0.0. It also gave a ZEAMX rating (ZEAMX (Corn, Field) [12]; 0.0625 kg/ha) of 0.0, a ZEAMX rating (ZEAMX (Corn, Field) [12]; 0.1250 kg/ha) of 5.0 and a ZEAMX rating (ZEAMX (Corn, Field) [12]; 0.2500 kg/ha) of 8.0. The ZEAMX rating (ZEAMX (Corn, Field) [12]; 0.5000 kg/ha) was 9.0, the “Herbicidal rating CYPIR” value (CYPIR (Rice Flatsedge); Rate 0.0313 kg/ha) was 3.0 and the “Herbicidal rating CYPIR” value (CYPIR (Rice Flatsedge); Rate 0.0625 kg/ha) was 7.0. The “Herbicidal rating CYPIR” value (CYPIR (Rice Flatsedge); Rate 0.1250 kg/ha) was 9.0, the “Herbicidal rating CYPIR” value (CYPIR (Rice Flatsedge); Rate 0.2500 kg/ha) was 9.0 and the “Herbicidal rating CYPSE” value (CYPSE (Flatsedge); Rate 0.0313 kg/ha) was 0.0. For the same compound, the “Herbicidal rating CYPSE” value (CYPSE (Flatsedge); Rate 0.0625 kg/ha) was 3.0, the “Herbicidal rating CYPSE” value (CYPSE (Flatsedge); Rate 0.1250 kg/ha) was 9.0 and the “Herbicidal rating CYPSE” value (CYPSE (Flatsedge); Rate 0.2500 kg/ha) was 9.0.
